Measured values as given in patent publication US7125964B2, “Purification of antigen-specific T cells” (Ortho-McNeil Pharmaceutical, Inc., priority 1996, dated 2006).
Like-named read-outs stand apart in the source and are kept apart here.

Legend:
2C T cells [1] = test: Cell-bead complex formation, flow cytofluorometry, green versus red fluorescence dot plots; assay type: cell-based, mouse; conditions: L^d-coated beads, 20 μM peptide
EL4 cells = assay type: cell-based, mouse
[2] = molecular target: 2C T cell receptor (2C TCR) on naive T cells purified from 2C TCR transgenic mice (mouse); test: 2C T cells mixed with CD8+ T cells of naive B6 mouse (0.03%), adsorption on MHC class I-coated magnetic beads, 2 experiments
[3] = molecular target: 2C T cell receptor (2C TCR) on naive T cells purified from 2C TCR transgenic mice (mouse); test: 2C T cells with MHC-coated magnetic beads, 4 h, flow cytofluorometry, forward versus side scatter
[4] = molecular target: 2C T cell receptor (2C TCR) on naive T cells purified from 2C TCR transgenic mice (mouse); test: fluorescein-labeled 2C T cells with phycoerythrin-labeled L^d-coated beads, flow cytofluorometry, green versus red dot plots
2C TCR = conditions: association constant, cited from earlier work; for affinity of peptide-MHC complex for the 2C TCR: recently determined; for 2C TCR affinity for L^d-peptide: Sykulev et al, 1994 a, b
2C T cells [5] = test: Capture of 2C T cells on MHC-coated magnetic beads, microscopic examination; assay type: cell-based, mouse; conditions: readout not stated
[6] = molecular target: 2C T cell receptor (2C TCR) on naive T cells purified from 2C TCR transgenic mice (mouse); test: 2C T cells with MHC-coated magnetic beads, flow cytofluorometry, temperature dependence
L^d = molecular target: T1, L^d (Mus musculus, UniProt P01897); conditions: association constant; cited from earlier work
T1 sequence (P01897 25-298 limits assumed): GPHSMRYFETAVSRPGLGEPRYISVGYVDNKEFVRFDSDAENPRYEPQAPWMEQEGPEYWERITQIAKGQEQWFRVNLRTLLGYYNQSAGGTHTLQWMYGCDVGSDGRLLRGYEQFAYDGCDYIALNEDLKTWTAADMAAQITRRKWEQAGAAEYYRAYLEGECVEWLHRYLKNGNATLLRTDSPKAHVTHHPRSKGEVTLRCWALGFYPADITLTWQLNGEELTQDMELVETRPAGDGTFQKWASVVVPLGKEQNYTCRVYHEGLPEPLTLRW
T1 sequence (P01887 21-119 partner): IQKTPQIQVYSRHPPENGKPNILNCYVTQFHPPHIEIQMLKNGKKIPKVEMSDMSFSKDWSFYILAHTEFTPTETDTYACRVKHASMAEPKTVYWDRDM

2C T cells [7] = test: Influence of temperature and CD8 on cell-bead complex formation, flow cytofluorometry; assay type: cell-based, mouse; conditions: for CD8 dependence of cell capture: purified 2C T cells versus CD8^− 2C T cells, room temperature, 3 hours
Experimental: We used flow cytofluorometry analysis to quantitate the influence of various parameters on cell-bead complex formation. Attachment of cells to beads was time dependent. […] Kinetics of adsorption were remarkably parallel for various peptide-MHC complexes. At 4° C., only a small percentage of cells was captured on beads, even after prolonged incubation. […] ([…], 1996).

2C T cells [8] = test: Cell-bead complex formation, flow cytofluorometry, side scatter versus forward scatter dot plots; assay type: cell-based, mouse; conditions: 4 hours of incubation
[9] = molecular target: 2C T cell receptor (2C TCR) on naive T cells purified from 2C TCR transgenic mice (mouse); test: fluorescein-labeled 2C T cells with phycoerythrin-labeled L^d-coated beads, flow cytofluorometry, green versus red dot plots; laid by the filing to non-specific adsorption of cell debris
[10] = molecular target: 2C T cell receptor (2C TCR) on naive T cells purified from 2C TCR transgenic mice (mouse); test: 2C T cells with MHC-coated magnetic beads, flow cytofluorometry, forward versus side scatter
2C T cells [11] = test: Recovery of 2C T cells mixed with CD8^+ T cells from naive C57BL/6 mouse by adsorption on MHC class I-coated magnetic beads; assay type: cell-based; conditions: for % 2C T cell after enrichment: 0.03% 2C T cells before enrichment
Experimental: T cell precursor frequencies in a naive animal are typically low. Magnetic beads have been found suitable in other systems to enrich low frequency cell populations (Sawada et al., 1990; Kato and Radbruch, 1993). To assess whether MHC class I-coated magnetic beads could be used for T cell precursor enrichment, we mixed fluorescein-labeled 2C T cells with CD8^+ T cells purified from naive C57BL/6 mice. After incubation with MHC-coated magnetic beads in the presence of peptide, adsorbed cells were eluted and counted, and the percentage of 2C T cells was determined by flow cytofluorometry. In the experiment shown in FIG. 5, 2C T cells were undetectable at the initial frequency of 0.03%. Following adsorption using K^bm3-coated beads and dEV-8 peptide, a definite peak of green fluorescence was observed, displaying the same intensity as the original fluorescein-stained 2C T cell population. This peak represented 65.1% of the eluted cells. No peak was observed when a control peptide was used instead of dEV-8. […] In all cases, the non-fluorescent cells in the eluted population represented only a minor fraction of the initial cell population (˜0.2%).

[12] = molecular target: 2C T cell receptor (2C TCR) on naive T cells purified from 2C TCR transgenic mice (mouse); test: 2C T cells mixed with CD8+ T cells of naive B6 mouse (0.03%), adsorption on MHC class I-coated magnetic beads, 3 experiments

## RPQASGVYM [LCMV]
2C T cells [1]
  percentage of cells complexed to beads (RG/G+RG): 2.2%

## RGYVYQGL [VSV-8]
EL4 cells
  CTL activity of cells captured and cultured with the same peptide: displayed a CTL activity specific for VSV-8
  CTL precursors for the other peptide in captured cells: no detectable anti-OVA-8 CTL precursors

## K^b-SIYR complex on avidin-coated magnetic beads (from UniProt P01887 21-119; P01901 22-369) (peptide-MHC)
[2]
  2C T cell recovery: 56.8%
[3]
  % of cells adsorbed to beads: 75.7%

## L^d-SL9 complex on avidin-coated magnetic beads (from UniProt P01887 21-119; P01897 25-362) (peptide-MHC)
[4]
  % of cells complexed to beads: > 85%

## K^b-SIYR: complex of K^b with peptide SIYR
2C TCR
  affinity of peptide-MHC complex for the 2C TCR: 31000 M⁻¹
2C T cells [5]
  capture of 2C T cells observed or not: consistently observed capture

## L^d-p2Ca complex on avidin-coated magnetic beads (from UniProt P01887 21-119; P01897 25-362) (peptide-MHC)
[6]
  attachment level at 37° C. against the value at room temperature: 25%
[4]
  % of cells complexed to beads: > 85%
[3]
  % of cells adsorbed to beads: 78.9%

## SPFPFDLLL [SL9, ID; NO.: 3]
L^d
  Peptide affinity for L^d: 4e+07 M⁻¹
2C TCR
  2C TCR affinity for L^d-peptide: 14000 M⁻¹

## L^d-p2Ca-A3: complex of L^d with peptide p2Ca-A3
2C TCR
  affinity of peptide-MHC complex for the 2C TCR: 20000 M⁻¹
2C T cells [5]
  capture of 2C T cells observed or not: not

## L^d-p2Ca: complex of L^d with peptide p2Ca
2C T cells [7]; 37° C. versus room temperature
  attachment levels at 37° C. relative to values measured at room temperature: about 25%
2C T cells [7]
  CD8 dependence of cell capture: exhibited CD8 dependence

## LSPFPFDL [p2Ca]
L^d
  Peptide affinity for L^d: 4e+06 M⁻¹
2C T cells [8]; L^d-coated beads
  percentage of cells adsorbed to beads (CO/CO+CE): 78.9%
2C T cells [7]
  CD8 dependence of cell capture: most CD8-dependent
2C TCR
  2C TCR affinity for L^d-peptide: 2e+06 M⁻¹

## K^bm3-dEV-8 complex on avidin-coated magnetic beads (from UniProt P01887 21-119) (peptide-MHC)
[2]
  2C T cell recovery: 47.7%
[3]
  % of cells adsorbed to beads: 63.8%

## L^d-LCMV complex on avidin-coated magnetic beads (from UniProt P01887 21-119; P01897 25-362) (peptide-MHC)
[9]
  % red and green colored events: 2.2%
[10]
  % of events in the complex region: 2.6%

## SIYRYYGL
2C T cells [8]; K^b-coated beads
  percentage of cells adsorbed to beads (CO/CO+CE): 75.7%
2C T cells [7]
  CD8 dependence of cell capture: CD8 independent
2C T cells [11]; K^b-coated beads
  2C T cell enrichment: 1588 ± 71 fold
  % 2C T cell after enrichment: 47.6 ± 2.1%

## SIINFEKL [OVA-8, ID; NO.: 9]
EL4 cells; K^b-coated beads, naive C57BL/6 CD8^+ T cells, tested at day 18, peptides 1 μM
  CTL activity of cells captured and cultured with the same peptide: displayed a CTL activity specific for OVA-8 peptide
EL4 cells; reverse combination: captured with one peptide, activated in culture with the other
  CTL precursors for the other peptide in captured cells: no detectable anti-VSV-8 CTL precursors

## L^d-QL9 complex on avidin-coated magnetic beads (from UniProt P01887 21-119; P01897 25-362) (peptide-MHC)
[4]
  % of cells complexed to beads: > 85%
[3]
  % of cells adsorbed to beads: 91%
[12]
  2C T cell recovery: 90%

## L^d-QL9: complex of MHC class I molecule L^d with peptide QL9
2C T cells [7]
  CD8 dependence of cell capture: largely CD8 independent

## L^d-SL9: complex of L^d with peptide SL9
2C TCR
  affinity of peptide-MHC complex for the 2C TCR: 14000 M⁻¹

## QLSPFPFDL [QL9]
L^d
  Peptide affinity for L^d: 2e+08 M⁻¹
2C T cells [8]; L^d-coated beads
  percentage of cells adsorbed to beads (CO/CO+CE): 91.0%
2C T cells [7]
  CD8 dependence of cell capture: CD8 independent
2C TCR
  2C TCR affinity for L^d-peptide: 10^7 M^−1
2C T cells [11]; L^d-coated beads
  2C T cell enrichment: 828 ± 230 fold
  % 2C T cell after enrichment: 24.8 ± 6.9%

## EQYKFYSV [dEV-8, ID; NO.: 5]
2C T cells [8]; K^bm3-coated beads
  percentage of cells adsorbed to beads (CO/CO+CE): 63.8%
2C T cells [7]
  CD8 dependence of cell capture: most CD8-dependent
2C T cells [11]; K^bm3-coated beads
  2C T cell enrichment: 1697 ± 473 fold
  % 2C T cell after enrichment: 50.9 ± 14.2%

## K^b-dEV-8: complex of K^b with peptide dEV-8
2C TCR
  affinity of peptide-MHC complex for the 2C TCR: 12000 M⁻¹
2C T cells [5]
  capture of 2C T cells observed or not: not

## YPHFMPTNL [MCMV, ID; NO.: 8]
L^d
  Peptide affinity for L^d: 2e+09 M⁻¹
2C TCR
  2C TCR affinity for L^d-peptide: <10^3 M^−1

B1: K^b-E1: non-2C reactive complex of K^b with peptide E1 (protein)
MHC heavy: GPHSLRYFVTAVSRPGLGEPRYMEVGYVDDTEFVRFDSDAENPRYEPRARWMEQEGPEYWERETQKAKGNEQSFRVDLRTLLGYYNQSKGGSHTIQVISGCEVGSDGRLLRGYQQYAYDGCDYIALNEDLKTWTAADMAALITKHKWEQAGEAERLRAYLEGTCVEWLRRYLKNGNATLLRTDSPKAHVTHHSRPEDKVTLRCWALGFYPADITLTWQLNGEELIQDMELVETRPAGDGTFQKWASVVVPLGKEQYYTCHVYHQGLPEPLTLRWEPPPSTVSNMATVAVLVVLGAAIVTGAVVAFVMKMRRRNTGGKGGDYALAPGSQTSDLSLPDCKVMVHDPHSLA
b2m: T1 sequence (P01887 21-119 partner)
peptide: EIINFEKL
2C T cells [8]; K^b-coated beads
  percentage of cells adsorbed to beads (CO/CO+CE): 0.2%
